Measured values taken from US20200017495A1, “NOVEL HETEROCYCLIC COMPOUNDS AND THEIR USE IN PREVENTING OR TREATING BACTERIAL INFECTIONS” (priority 2017, published 2020).

Key:
Experiment in all cases: MIC of compounds alone and combined with antibacterials, broth microdilution (CLSI)
Format in all cases: cell-based
[1] = tested on: Citrobacter koseri (CKR) isolates
Procedure, shortened: (§1)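 Log-phase isolates were inoculated at a final 5.10^5 CFU/mL in cation-adjusted Mueller-Hinton broth and incubated 16-20 h at 35° C in ambient air. MIC was the lowest concentration preventing visible growth; for combinations, the antibacterial MIC was read at each compound concentration.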

[2] = tested on: Providencia rettgeri (PRE) isolates
Procedure, shortened: as §1

[3] = tested on: Escherichia coli (ECO) isolates
Procedure, shortened: as §1

[4] = tested on: Enterobacter cloacae (ECL) isolates
Procedure, shortened: as §1

CO/N=C(\C(=O)N[C@@H]1C(=O)N2C(C(=O)O)=C(COC(N)=O)CS[C@H]12)c1ccco1 [FUR, Cefuroxime]
MIC ([1]; strain CKO ROU, genotype TEM-1, SHV-12, CTX-M-15, OXA-1, OXA-48): 64 µg/mL | MIC ([1]; strain CKO UFR149, genotype OXA-48): >256 µg/mL | MIC ([1]; strain CKO UFR150, genotype TEM-1, OXA-48): 64 µg/mL | MIC ([2]; strain PRE UFR99, genotype OXA-1, OXA-181): >256 µg/mL | MIC ([2]; strain PRE UFR236, genotype TEM-1, OXA-48): 64 µg/mL | MIC ([3]; strain ECO 4133, genotype TEM-30, OXA-1): 16 µg/mL | MIC ([3]; strain ECO 5302, genotype TEM-1, OXA-1): 32 µg/mL | MIC ([3]; strain ECO 131119, genotype TEM-1, OXA-48): 8 µg/mL | MIC ([3]; strain ECO 180070, genotype TEM-1, CTX-M-15): >256 µg/mL | MIC ([3]; strain ECO 190314, genotype CTX-M-1): >256 µg/mL | MIC ([3]; strain ECO 190317, genotype TEM-1, SHV-12, CTX-M-15, OXA-1): >512 µg/mL | MIC ([3]; strain ECO 190457, genotype CTX-M-15, OXA-1): >256 µg/mL | MIC ([3]; strain ECO 190549, genotype CTX-M-1): >256 µg/mL | MIC ([3]; strain ECO 200159, genotype TEM-1, CTX-M-14): >256 µg/mL | MIC ([3]; strain ECO 200259, genotype CTX-M-14): >256 µg/mL | MIC ([3]; strain ECO 200344, genotype CTX-M-1): >256 µg/mL | MIC ([3]; strain ECO 260096, genotype CTX-M-132): >256 µg/mL | MIC ([3]; strain ECO 260304, genotype CTX-M-15): >256 µg/mL | MIC ([3]; strain ECO 260508, genotype TEM-1, CTX-M-15, OXA-1): >256 µg/mL | MIC ([3]; strain ECO RGN238, genotype OXA-1): 16 µg/mL | MIC ([3]; strain ECO UFR15, genotype TEM-1, OXA-48): 16 µg/mL | MIC ([3]; strain ECO UFR16, genotype TEM-1, CTX-M-15, OXA-1, OXA-48): >256 µg/mL | MIC ([3]; strain ECO UFR17, genotype TEM-1, CTX-M-15, CMY-2, OXA-1, OXA-181): >256 µg/mL | MIC ([3]; strain ECO UFR18, genotype CTX-M-15, OXA-204): >256 µg/mL | MIC ([3]; strain ECO UFR19, genotype CTX-M-15, CMY-2, OXA-1, OXA-204): >256 µg/mL | MIC ([3]; strain ECO UFR20, genotype SHV-1, CTX-M-15, OXA-1, OXA-232): >256 µg/mL | MIC ([3]; strain ECO UFR39, genotype CTX-M-15, NDM-1): >256 µg/mL | MIC ([3]; strain ECO UFR61O, genotype TEM-1, KPC-2): >256 µg/mL | MIC ([3]; strain ECO UFR62, genotype TEM-1, CTX-M-9, KPC-2): >256 µg/mL | MIC ([3]; strain ECO UFR74, genotype SHV-1, DHA-1): >256 µg/mL | MIC ([3]; strain ECO UFR86, genotype ompC-, ompF-): 64 µg/mL | MIC ([3]; strain ECO UFR174, genotype TEM-1, KPC-2, OXA-1): >256 µg/mL | MIC ([3]; strain ECO UFR175, genotype TEM-1, KPC-2, OXA-9): >256 µg/mL | MIC ([3]; strain ECO UFR176, genotype KPC-3, OXA-9*): >256 µg/mL | MIC ([3]; strain ECO UFR184, genotype CTX-M-15, CMY-4, OXA-1, OXA-204): >256 µg/mL | MIC ([3]; strain ECO UFR185, genotype OXA-48): >256 µg/mL | MIC ([3]; strain ECO UFR186, genotype TEM-1, CTX-M-14, OXA-48): >256 µg/mL | MIC ([3]; strain ECO UFR187, genotype CTX-M-15, OXA-48): >256 µg/mL | MIC ([3]; strain ECO UFR189, genotype TEM-1, CTX-M-15, OXA-48): >256 µg/mL | MIC ([3]; strain ECO UFR190, genotype CTX-M-24, OXA-48): >256 µg/mL | MIC ([3]; strain ECO UFR191, genotype TEM-1, CTX-M-24, OXA-48): >256 µg/mL | MIC ([3]; strain ECO UFR207, genotype CTX-M-15): >256 µg/mL | MIC ([3]; strain ECO UFR208, genotype SHV-12): >256 µg/mL | MIC ([3]; strain ECO UFR209, genotype TEM-1, CTX-M-15): >256 µg/mL | MIC ([3]; strain ECO UFR210, genotype SHV-12): >256 µg/mL | MIC ([3]; strain ECO UFR211, genotype TEM-24): 64 µg/mL | MIC ([3]; strain ECO UFR212, genotype CMY-2): >256 µg/mL | MIC ([3]; strain ECO UFR218, genotype TEM-1, SHV-1, CTX-M-15): >256 µg/mL | MIC ([4]; strain ECL 2185D, genotype OXA-163): >256 µg/mL | MIC ([4]; strain ECL 190310, genotype AmpC): >256 µg/mL | MIC ([4]; strain ECL 190408, genotype TEM-1, CTX-M-15, OXA-1): >256 µg/mL | MIC ([4]; strain ECL 200138, genotype AmpC): >256 µg/mL | MIC ([4]; strain ECL 200322, genotype TEM-1, CTX-M-15, OXA-1): >256 µg/mL | MIC ([4]; strain ECL 260033, genotype AmpC): >256 µg/mL | MIC ([4]; strain ECL 260253, genotype TEM-1, KPC-3): >256 µg/mL | MIC ([4]; strain ECL 260323, genotype AmpC): >256 µg/mL | MIC ([4]; strain ECL 260508, genotype TEM-1, CTX-M-15): >256 µg/mL | MIC ([4]; strain ECL NEM146383, genotype AmpC): >256 µg/mL | MIC ([4]; strain ECL P99, genotype AmpC): >512 µg/mL | MIC ([4]; strain ECL UFR12, genotype CTX-M-9, OXA-48): >256 µg/mL | MIC ([4]; strain ECL UFR13, genotype TEM-1, SHV-12, CTX-M-9, OXA-48): >256 µg/mL | MIC ([4]; strain ECL UFR14, genotype TEM-1, SHV-12, CTX-M-15, DHA-1, OXA-1, OXA-48): >256 µg/mL | MIC ([4]; strain ECL UFR60, genotype TEM-1, CTX-M-15, KPC-2): >256 µg/mL | MIC ([4]; strain ECL UFR70, genotype TEM-1, CTX-M-15, CMY-2, OXA-1, Porin loss): >256 µg/mL | MIC ([4]; strain ECL UFR84, genotype TEM-1, AmpC, OXA-1): >256 µg/mL | MIC ([4]; strain ECL UFR85, genotype TEM-1, CTX-M-15, AmpC): >256 µg/mL | MIC ([4]; strain ECL UFR194, genotype OXA-48): 32 µg/mL | MIC ([4]; strain ECL UFR195, genotype TEM-1, CTX-M-15, OXA-1, OXA-48): >256 µg/mL | MIC ([4]; strain ECL UFR196, genotype TEM-1, CTX-M-15, OXA-1, OXA-48): >256 µg/mL | MIC ([4]; strain ECL UFR197, genotype TEM-1, CTX-M-15, OXA-1, OXA-48): >256 µg/mL | MIC ([4]; strain ECL UFR198, genotype TEM-1, SHV-12, CTX-M-15, DHA-1, OXA-1, OXA-48): >256 µg/mL | MIC ([4]; strain ECL UFR200, genotype TEM-1, SHV-12, KPC-2): >256 µg/mL
